Measured values: paper PMC5840146, “Structure-Activity Relationship Analysis of 3-Phenylcoumarin-Based Monoamine Oxidase B Inhibitors” (Frontiers in Chemistry, 2018)

Tests used:
[1] = target: T1, human CYP1A2 (Homo sapiens, UniProt P05177); experiment: CYP1A2 inhibition, 7-ethoxyresorufin fluorescence assay; type: biochemical
T1 construct: purchased Corning Inc
T1 sequence (P05177 1-516): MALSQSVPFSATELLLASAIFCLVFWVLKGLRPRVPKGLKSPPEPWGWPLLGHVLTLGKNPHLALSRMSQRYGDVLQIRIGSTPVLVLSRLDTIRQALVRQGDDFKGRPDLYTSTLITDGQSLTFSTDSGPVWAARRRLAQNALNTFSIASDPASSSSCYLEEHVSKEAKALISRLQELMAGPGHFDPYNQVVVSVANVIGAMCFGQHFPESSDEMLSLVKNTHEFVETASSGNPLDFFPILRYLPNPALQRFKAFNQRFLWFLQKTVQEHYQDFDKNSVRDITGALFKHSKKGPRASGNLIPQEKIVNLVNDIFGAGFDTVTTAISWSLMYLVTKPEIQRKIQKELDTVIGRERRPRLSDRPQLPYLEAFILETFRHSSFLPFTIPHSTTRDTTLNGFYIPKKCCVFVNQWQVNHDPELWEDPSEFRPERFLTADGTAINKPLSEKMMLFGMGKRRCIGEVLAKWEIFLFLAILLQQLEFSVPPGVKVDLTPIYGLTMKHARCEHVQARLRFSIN
Protocol: Inhibition of CYP1A2 activity was determined with commercial heterologously expressed human CYP1A2 enzyme (Corning Inc., Corning, NY, USA) as described earlier (Korhonen et al., [2005]). The metabolic activity was not in the scope of this particular study. The assay was adapted to the 96-well plate format. In each well, a 150 μL incubation volume contained 100 mM Tris-HCl buffer (pH 7.4), 4.2 mM MgCl2,1 μM 7-ethoxyresorufin, 0.5 pmol of cDNA expressed CYP1A2, […] inhibitor, and a NADPH-generating system. All inhibitors were dissolved in ethanol, and the final concentration of ethanol was 2% in all incubations. The reaction was initiated by adding the NADPH-regenerating system after a 10 min preincubation at 37°C, and after a 20 min incubation, the reaction was terminated by the addition of 110 μL of 80% acetonitrile/20% 0.5 M Tris base. The formed fluorescence was measured with a Victor2 plate counter (Perkin-Elmer Life Sciences Wallac, Turku, Finland) at 570 nm excitation and 616 nm emission.

[2] = target: T2, ERα (Homo sapiens, UniProt P03372); experiment: PolarScreen ER Alpha Competitor Assay (fluorescence polarization); type: binding; conditions: for inhibition at 10 µM / ER inhibition %: 10 μM
T2 construct: purchased Life Technologies
T2 sequence (P03372 1-595): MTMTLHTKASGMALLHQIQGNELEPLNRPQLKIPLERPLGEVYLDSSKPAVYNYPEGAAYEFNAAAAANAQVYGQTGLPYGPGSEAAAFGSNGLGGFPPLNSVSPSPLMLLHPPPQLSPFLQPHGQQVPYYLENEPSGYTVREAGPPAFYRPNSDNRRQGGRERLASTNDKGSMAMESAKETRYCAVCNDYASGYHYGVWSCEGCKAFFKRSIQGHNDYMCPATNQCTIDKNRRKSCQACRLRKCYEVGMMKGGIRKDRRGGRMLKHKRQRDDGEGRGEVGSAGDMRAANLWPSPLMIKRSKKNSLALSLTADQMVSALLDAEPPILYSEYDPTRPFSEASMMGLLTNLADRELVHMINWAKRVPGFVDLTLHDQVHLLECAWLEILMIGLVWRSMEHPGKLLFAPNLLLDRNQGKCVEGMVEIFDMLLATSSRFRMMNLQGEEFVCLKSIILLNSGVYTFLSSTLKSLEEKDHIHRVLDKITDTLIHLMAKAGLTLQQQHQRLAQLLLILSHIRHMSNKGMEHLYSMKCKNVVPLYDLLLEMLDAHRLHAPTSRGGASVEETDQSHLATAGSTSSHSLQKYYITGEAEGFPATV
Protocol: The pIC50 values for the derivatives (Table 1, Supplementary Table S1) were measured with green PolarScreen™ ER Alpha Competitor Assay (Life Technologies, CA, The United States of America) kit, following the manufacturer protocol as previously described (Niinivehmas et al., [2016]). The final concentration of the compounds ranged from 0.0007 to 10 000 nM in the dilution series which were performed as duplicates. The molecules were combined with 25 nM ERα and 4.5 nM fluormone in the assay buffer and placed on black low volume 384-well assay plate with NBS surface (Corning, NY, The United States of America). After mixing the assay plate, it was incubated for 2 h in RT. The fluorescence polarization was measured using excitation wave length 485 and emission wave length 535 with bandwidths of 25/20 nm on a 2104 EnVision® Multilabel Plate Reader which had EnVision Workstation version 1.7 (PerkinElmer, MA, The United States of America).

[3] = target: T3, recombinant human HSD1 (Homo sapiens, UniProt P14061); experiment: HSD1 inhibition by HPLC with tritium labeled estrone/estradiol; type: biochemical; conditions: 1 μM
T3 construct: made in house; host or cells: Sf9 insect cells
T3 sequence (P14061 1-328): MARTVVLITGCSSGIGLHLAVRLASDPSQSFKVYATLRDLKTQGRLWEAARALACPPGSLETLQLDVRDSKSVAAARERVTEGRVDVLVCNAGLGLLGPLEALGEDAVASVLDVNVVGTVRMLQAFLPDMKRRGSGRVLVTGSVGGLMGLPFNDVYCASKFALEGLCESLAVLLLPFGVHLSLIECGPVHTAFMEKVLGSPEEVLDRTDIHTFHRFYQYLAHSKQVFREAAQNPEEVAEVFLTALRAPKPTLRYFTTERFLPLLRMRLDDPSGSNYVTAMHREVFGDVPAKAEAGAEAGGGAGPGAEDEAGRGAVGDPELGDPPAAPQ

Row | IC50 [1] | inhibition at 10 µM [2] | inhibition at 1 µM [3] | ER activity (in words) [2] | ER inhibition % [2] | HSD1 inhibition % [3] | SMILES
1 | 3 µM | 0% | 20% | – | – | – | O=c1oc2ccc(O)cc2cc1-c1ccc(F)cc1 [derivative 24, 3-(4-fluorophenyl)-6-hydroxy-2H-chromen-2-one]
2 | 114 µM | – | – | prominent | 57.12% | 0.30% | CC(=O)Oc1ccc2cc(-c3ccc(F)cc3)c(=O)oc2c1 [derivative 28]
3 | 3 µM | 0% | 12 to 33% | – | – | 11% | Cc1ccc2oc(=O)c(-c3ccc(F)cc3)cc2c1 [derivative 23, 3-(4-fluorophenyl)-6-methyl-2H-chromen-2-one]
4 | 33 µM | – | – | prominent | 98.41% | 83.90% | O=c1oc2ccc(O)cc2cc1-c1ccc(O)cc1 [derivative 48]
5 | 1.6 µM | 0.29% | 4% | – | – | – | COc1cccc(-c2cc3ccccc3oc2=O)c1 [derivative 11, 3-(3-methoxyphenyl)-2H-chromen-2-one]
6 | 180 µM | – | – | prominent | 70.96% | 12.50% | Cc1ccc(-c2cc3ccc(O)cc3oc2=O)cc1 [derivative 27]
7 | 17 µM | 0% | 1% | – | – | – | COc1ccc2oc(=O)c(-c3ccc(N(C)C)cc3)cc2c1 [derivative 18, 3-(4-(dimethylamino)phenyl)-6-methoxy-2H-chromen-2-one]
8 | 4.5 µM | 8.8% | 33% | – | – | – | COc1ccc2cc(-c3cc(F)c(F)cc3F)c(=O)oc2c1 [derivative 16, 7-methoxy-3-(2,4,5-trifluorophenyl)-2H-chromen-2-one]
9 | 7 µM | – | – | – | 0.00% | 56.00% | O=c1oc2ccccc2cc1-c1cccc(O)c1 [derivative 31]
10 | 240 µM | – | – | prominent | 100.63% | 0.00% | O=c1oc2cc(O)ccc2cc1-c1ccc(F)cc1 [derivative 39]
11 | 22 µM | – | – | prominent | 58.53% | 48.20% | O=c1oc2cc(O)ccc2cc1-c1ccc(O)cc1 [derivative 30]
12 | 3 µM | 0% | 12% | – | – | – | COc1ccc2oc(=O)c(-c3cc(F)c(F)cc3F)cc2c1 [derivative 15, 6-methoxy-3-(2,4,5-trifluorophenyl)-2H-chromen-2-one]
13 | 8 µM | – | – | prominent | 101.40% | – | O=c1oc2cc(O)ccc2cc1-c1ccccc1 [derivative 41]
14 | 1.5 µM | 55.4% | 54% | prominent | – | – | COc1ccc2oc(=O)c(-c3ccc(O)c(F)c3)cc2c1 [derivative 22, 3-(3-fluoro-4-hydroxyphenyl)-6-methoxy-2H-chromen-2-one]
15 | 35 µM | – | – | – | 0.00% | 3.50% | COc1cccc(-c2cc3ccc(OC)cc3oc2=O)c1 [derivative 25]
16 | 30 µM | 86.1% | 46% | prominent | – | – | COc1ccc2cc(-c3ccc(O)c(F)c3)c(=O)oc2c1 [derivative 20, 3-(3-fluoro-4-hydroxyphenyl)-7-methoxy-2H-chromen-2-one]
17 | 3 µM | 0% | 0% | – | – | – | COc1ccc2oc(=O)c(-c3ccc(F)cc3)cc2c1 [derivative 21, 3-(4-fluorophenyl)-6-methoxy-2H-chromen-2-one]
18 | 171 µM | 1.08% | 0% | – | – | – | Cc1ccc2oc(=O)c(-c3ccc(C(F)(F)F)cc3)cc2c1 [derivative 5, 6-methyl-3-(4-(trifluoromethyl)phenyl)-2H-chromen-2-one]
19 | 24 µM | – | – | – | 18.53% | 49.10% | O=c1oc2ccc(O)cc2cc1-c1cccc(O)c1 [derivative 38]
20 | 26 µM | – | – | – | 0.00% | 3.80% | COc1ccc(-c2cc3ccccc3oc2=O)cc1 [derivative 36]
21 | 26 µM | – | – | prominent | 74.22% | 5.40% | O=c1oc2ccccc2cc1-c1ccc(O)cc1 [derivative 29]
22 | 2.3 µM | 0% | 0% | – | – | – | COc1cccc(-c2cc3cc(OC)ccc3oc2=O)c1 [derivative 8, 6-methoxy-3-(3-methoxyphenyl)-2H-chromen-2-one]
23 | 240 µM | – | – | – | 0.00% | 0.00% | COc1ccc2oc(=O)c(-c3ccc(Oc4ccc(F)cc4)cc3)cc2c1 [derivative 46]
24 | 86 µM | – | – | – | 0.00% | 76.70% | COc1ccc(-c2cc3cccc(O)c3oc2=O)cc1 [derivative 33]

Row | SMILES | IC50 [1] | inhibition at 10 µM [2] | inhibition at 1 µM [3] | ER activity (in words) [2] | ER inhibition % [2] | HSD1 inhibition % [3]
25 | COc1ccc(-c2cc3ccc(O)cc3oc2=O)cc1 [derivative 12, 7-hydroxy-3-(4-methoxyphenyl)-2H-chromen-2-one] | 170 µM | 91.3% | 3% | prominent | – | –
